In patent US8101628B2, “Imidazolidinonyl aminopyrimidine compounds for the treatment of cancer” (Eli Lilly and Company, priority 2007, dated 2012):
Read-outs that look alike come from different tables or passages of the source.

What was measured:
[1] = in man, cited from earlier work
[2] = test system: HCT116, A549 and NCIH460 murine xenografts; details: cited from earlier work
HCT116 cells = test: Antiproliferative Assay; format: cell-based; details: Homo sapiens, HCT-116, e.g. 72 hours exposure, Alamar Blue, n=3, MSR 3.1
Experimental: The effects of compounds on cell proliferation can be determined using cells and cell proliferation methods well-known in the art (Robert C. Squatrito et al., Gynecological Oncology, 58, 101-105, (1995)). For example, HCT116 cells, which may be obtained from the American Type Culture Collection, may be seeded at 2000 cells/well in 96-well plates and allowed to attach overnight in a humidified CO2 incubator at 37° C. Following the 20-24 hour incubation, half-log serially diluted compounds are added and the plates are returned to the incubator. After an appropriate length of exposure (e.g., 72 hours), cell proliferation is estimated using well-known methods. In one method, 10 μL of a tetrazolium salt, such as Alamar Blue™ is added to the cell plates. After an appropriate exposure to the dye, fluorescence (530 nm excitation, 580 nm emission) is determined. The resulting IC50 has an MSR of 3.1.

[3] = biological target: T1, Plk1-Flag-His6 tag fusion enzyme (Human Plk1) (Homo sapiens, UniProt P53350); test: Plk1 Inhibition Assay; format: biochemical; details: 5.0 μM ATP, GST-Cdc25c (1-206) substrate, 60 min room temperature; MSR 3.6; read-out: Plk1 IC50 (absolute IC50)
T1 construct: made in house; host or cells: Sf9 cells (baculovirus, pFastBac vector)
T1 sequence (P53350 whole entry, the tested form may be a part): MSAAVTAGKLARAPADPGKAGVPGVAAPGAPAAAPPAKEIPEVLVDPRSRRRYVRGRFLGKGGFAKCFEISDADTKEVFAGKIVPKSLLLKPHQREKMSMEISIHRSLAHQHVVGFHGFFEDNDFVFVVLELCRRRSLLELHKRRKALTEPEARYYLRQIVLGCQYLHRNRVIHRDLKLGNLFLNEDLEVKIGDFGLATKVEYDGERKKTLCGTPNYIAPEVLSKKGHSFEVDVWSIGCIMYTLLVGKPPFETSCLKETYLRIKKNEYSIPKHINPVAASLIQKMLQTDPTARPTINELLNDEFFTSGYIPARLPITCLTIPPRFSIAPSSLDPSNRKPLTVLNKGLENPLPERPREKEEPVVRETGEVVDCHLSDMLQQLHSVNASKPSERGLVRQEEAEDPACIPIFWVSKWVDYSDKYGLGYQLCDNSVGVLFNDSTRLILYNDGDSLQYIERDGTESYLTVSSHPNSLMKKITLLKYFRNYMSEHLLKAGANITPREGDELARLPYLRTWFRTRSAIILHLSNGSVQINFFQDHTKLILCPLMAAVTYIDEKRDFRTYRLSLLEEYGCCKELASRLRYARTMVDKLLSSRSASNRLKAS
From the text: Human Plk1 cDNA, which may be obtained from a number of sources, such as Incyte (accession number: NM_005030), may be directly linked at one of its termini with a polynucleotide sequence expressing a His6 tag, such as the C-terminal FLAG-His6 tag, and inserted into an appropriate expression vector, such as a pFastBac™ vector (Invitrogen) and transfected into an appropriate system, such as baculovirus similar to what has been reported by Yue-Wei Qian, et al., Science 282, 1701 (1998) for xPlkk1. If a viral expression system is used, then the virus (e.g., baculovirus bearing a Plk1-Flag-His6 tag polynucleotide construct) is infected into a culture of a suitable host cell, such as Sf9 cells. […]
Plk1 kinase reactions contain Plk1-Flag-His6 tag fusion enzyme (0.2 ng/μL) in a buffer containing 50 mM HEPES, pH 7.3, 1.0 mM dithiothreitol, 5.0 μM ATP, 10 mM MgCl2, 0.01% TRITON® X-100, 0.4 μCi ^33P-ATP, and 0.06 μg/μL GST-Cdc25c (1-206) peptide. […] Wells are dried before addition of 40 μL of MicroScint™20 (Packard) and then counted on a Wallac MICROBETA® Jet. The percentage inhibition values from the 10-point concentration response data are subsequently analyzed, for example, using ACTIVITY BASE™ software (IDBS), using a 4-parameter logistic equation. Absolute IC50 values are calculated from the resulting curve fit.

HeLa Cells = test: pHH3(S10), Mitotic Cells, and DNA Content Assays; format: cell-based; details: Homo sapiens, 23 hours exposure
Experimental: HeLa Cells from the American Type Culture Collection (ATCC) are plated at 200 cells/well in 96 well […] BIOCOAT™ plates, and are incubated in MEM (Minimum Essential Medium, e.g., GIBCO, catalog #11095) with 10% FBS (Fetal Bovine Serum) in 37° C., 5% CO2 for 24 hours. Cells are treated by adding compound (in 0.25% DMSO) to the medium, dosing at 10 points across the range 0.5 μM to 0.0098 μM. After 23 hours exposure to the compounds, cells are fixed, for example with the PREFER™ fixative [Anatech LTD., Catalog #414] for 30 min then are permeabilized with 0.1% TRITON® X100 in phosphate buffered saline (PBS) solution for 15 min. Cells are washed 3 times with PBS then digested with 50 μg/mL RNAse. Primary antibody, phosphohistone H3 (Upstate Cat#06-570), is added at 1:500 in PBS with 1% bovine serum albumin (BSA) to the cells over night at 4° C. After 3 PBS washes, cells are incubated with Alexa488 labeled secondary antibody (Invitrogen cat #A11008) for 1 hour at room temperature. Again they are washed 3 times with PBS, and then 15 μM propidium iodide (Molecular Probes cat #P3566) is added for 30 min to stain nuclei. Fluorescence Plates are scanned with ACUMEN EXPLORER™ [Laser-scanning fluorescence microplate cytometer (comprising of 488 nm argon ion laser excitation and multiple photomultiplier tube detection), manufactured by TTP LABTECH LTD] to measure phosphohistone H3, DNA content and mitotic cells as measured by DNA condensation. Image analyses are based on cellular fluorescent signals for identifying cells in different subpopulations. pHH3(S10) positive cells are identified by mean intensity at 500-530 nm above the threshold. Total intensity at 655-705 nm from propidium iodide/DNA is used to identify individual cells (cells with DNA content from 2N to 4N) and subpopulations in cell cycle (2N cells, 4N cells). Peak intensity at 575-640 nm is used to identify DNA condensation that is used as the marker to identify mitotic cells among 4N cells. […] The EC50 is determined by curve fitting to a four parameter logistic for each output using ACTIVITY BASE™. […]

SMILES	clearance (CL) ([1]; phase II clinical trials) [mL/min]	dose-limiting toxicity [1]	activity in preclinical xenograft models [2]	IC50 (HCT116 cells) [nM]	IC50 [3] [nM]	EC50 (HeLa Cells; n=1, MSR 2.5, read-out: mitotic EC50) [nM]	EC50 (HeLa Cells; n=2, MSR 2.4, read-out: DNA content EC50) [nM]	EC50 (HeLa Cells; n=2, MSR 2.6, read-out: pHH3(s10) EC50) [nM]
CC[C@@H]1C(=O)N(C)c2cnc(Nc3ccc(C(=O)NC4CCN(C)CC4)cc3OC)nc2N1C1CCCC1 [BI-2536]	> 1000	dose limited by myelosupression	demonstrated activity					
O=C1NCCN1CCNc1ncc(Cl)c(-c2cc3cccc(-c4cc(F)ncc4Cl)c3s2)n1 [Example 13, 1-(2-{5-Chloro-4-[7-(5-chloro-2-fluoropyridin-4-yl)-benzo[b]thiophen-2-yl]pyrimidin-2-ylamino}ethyl)imidazolidin-2-one]				11	~23	45	40	42
